Measurements: patent publication US8796328B2, “TRPV1 antagonists” (AbbVie Inc., priority 2012, dated 2014)

Experiments:
Assay type in all cases: in vivo
rats [1] = experiment: Rat tail immersion assay (noxious thermosensation, 55° C. water bath)
Protocol: Compounds were tested for their effects on noxious thermosensation using the tail immersion assay. Testing was performed one hour following oral administration of 100 μmol/kg of the compound in 10% ethanol/20% Tween-80/70% PEG-400 (2 mL/kg). Mophine (6 mg/kg) was administered interperitoneally (i.p.) using saline (2 mL/kg) as the vehicle. For testing, a circulating water bath was heated to 55° C. Thirty to sixty minutes post dosing, the rats were handled for a few seconds to calm them down and then cupped with their back against the testers hand at a slight angle with head facing away from tester. With rat in one hand and a 0.01 second stopwatch in the other hand, the tail was quickly immersed 6-8 cm in water bath or to a distance leaving 2-3 cm of tail out of water. The timer was started simultaneously. When the rat flinched or attempted withdrawal, timer was immediately stopped and the rat's tail was quickly removed from water bath. This response latency (in seconds) was recorded. Process was repeated 3 times with 3-4 minutes between readings for a final average.
For a given example, a percent increase in the average response latency (in seconds) for tail withdrawal relative to a vehicle control was determined % increase=[(tc−tv)/tv]×100%
tc=response time (in seconds) with oral dosing of compounds
tv=response time (in seconds) with oral dosing of vehicle
The % increases in tail withdrawal latency relative to vehicle control are divided into the following categories: […]

rats [2] = experiment: Rat acute capsaicin-induced flinching behavior; settings: single acute oral dose 100 μmol/kg, capsaicin 2.5 μg one hour after dosing, five minute observation
Protocol: Rats were placed in individual observation cages. Following an acclimation period of 30 minutes, selected compounds were administered orally at a dose of 100 μmol/kg orally in a vehicle (10% ethanol/20% Tween 80/70% polyethylene glycol-400) at a volume of 2 mL/kg. One hour after administration of the compound, 2.5 μg of capsaicin in a 10 μL solution of 10% ethanol/90% hydroxypropyl-β-cyclodextrin was injected subcutaneously into the dorsal aspect of the right hind paw. The observation cage was then suspended above mirrors in order to facilitate observation. […] The number of flinching behaviors of the injured paw was recorded during the five minute observation period (Gilchrist, H. D.; Allard, B. L.; Simone, D. A.; Enhanced withdrawal responses to heat and mechanical stimuli following intraplantar injection of capsaicin in rats. Pain, 1996, 67, 179-188). A single acute oral dose of Example 10 as described above produced a 56% reduction in flinching behavior relative to vehicle-treated animals.

rats [3] = experiment: Sodium iodoacetate-induced knee joint osteoarthritic pain model (hind limb grip force); settings: rat, 30 mg/kg single acute oral dose, assessed 1 hour following administration, 20 days after iodoacetate
Protocol: Unilateral knee joint osteoarthritis was induced in the rats by a single intra-articular (i.a.) injection of sodium iodoacetate (3 mg in 0.05 mL sterile isotonic saline) into the right knee joint cavity under light isoflurane anesthesia using a 26G needle. […] Pain behavioral assessment of hind limb grip force was conducted by recording the maximum compressive force exerted on the hind limb strain gauge setup, in a commercially available grip force measurement system (Columbus Instruments, Columbus, Ohio). The grip force data was converted to a maximum hindlimb cumulative compressive force (CFmax) (gram force)/kg body weight for each animal. The analgesic effects of test compounds were determined 20 days following the i.a. injection of sodium iodoacetate. The vehicle control group for each compound being tested was assigned 0% whereas the age matched naïve group was assigned as being 100% (normal). The % effect for each dose group was then expressed as % return to normalcy compared to the naïve group. Test compounds were administered orally in 10% ethanol/20% Tween 80/70% polyethylene glycol-400 vehicle at a volume of 2 mL/kg. The assessment of the analgesic effects of test compounds was made 1 hour following oral administration. […]

Compound: CS(=O)(=O)Nc1ccc(CNC(=O)N[C@@H]2CC(CF)(CF)Oc3cc(C(F)(F)F)ccc32)cc1F [Example 10, N-{4-[({[(4R)-2,2-bis(fluoromethyl)-7-(trifluoromethyl)-3,4-dihydro-2H-chromen-4-yl]carbamoyl}amino)methyl]-2-fluorophenyl}methanesulfonamide]
- % Increase in Tail Withdrawal Latency (rats [1]; rat, oral 100 μmol/kg, one hour post dosing, relative to vehicle): −
- increase in tail withdrawal latency relative to vehicle-treated animals (rats [1]; rats, after oral administration): < 10%
- reduction in flinching behavior relative to vehicle-treated animals (rats [2]): 56%
- % effect (% return to normalcy) in iodoacetate-induced osteoarthritic pain model (rats [3]): 62%
